Data published in article PMC6214572, “Carboxypeptidase O is a lipid droplet-associated enzyme able to cleave both acidic and polar C-terminal amino acids” (PLoS ONE, 2018).

Molecular target: T1, Carboxypeptidase O (CPO) (Homo sapiens, UniProt Q8IVL8, W297L)
T1 construct: full-length GPI-anchored enzyme without prodomain, (plasmid pcDNA-CPO in HEK293T); Triton X-100 cell lysate
T1 sequence (Q8IVL8 21-352 W297L): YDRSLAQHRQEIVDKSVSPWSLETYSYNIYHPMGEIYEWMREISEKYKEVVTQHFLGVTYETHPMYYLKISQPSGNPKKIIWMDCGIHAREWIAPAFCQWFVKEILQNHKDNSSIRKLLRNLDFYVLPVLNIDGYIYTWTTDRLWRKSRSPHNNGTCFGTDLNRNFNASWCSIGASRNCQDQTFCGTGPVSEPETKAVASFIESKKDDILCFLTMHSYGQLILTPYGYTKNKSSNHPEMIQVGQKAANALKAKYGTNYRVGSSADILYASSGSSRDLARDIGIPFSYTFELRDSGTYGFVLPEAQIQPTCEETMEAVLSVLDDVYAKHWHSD
Test: absorbance decrease at […] nm after […] min
Type: biochemical
Details: lysate of transfected HEK293T cells; 0.5 mM FA-EE, 37°C; inactive mutant

For `O=C(O)CC[C@H](NC(=O)[C@H](CCC(=O)O)NC(=O)C=Cc1ccco1)C(=O)O` [FA-Glu-Glu], the no enzymatic activity was “The W297L CPO mutant exhibits no enzymatic activity, although fully expressed”.
